Data as given in US20160166688A9, “COMBINATION THERAPY OF AN AFUCOSYLATED CD20 ANTIBODY WITH BENDAMUSTINE” (Roche Glycart AG, priority 2009, published 2016).

Test system: human Z138 mantle cell lymphoma cell line
Assay: Tumor growth inhibition study in vivo, Z138 xenograft
Design: species or system SCID beige mice
Details: for TGI (%): tumor growth inhibition vs. control group on day 33 after tumor cell inoculation, antibodies 1 mg/kg once weekly; for Antitumor activity / tumor growth compared to control group (words): 3 mg/kg i.p., study days 19-22, end of study day 33
[1] = i.p., bendamustine 3 mg/kg days 19-22

Row | Compound | TGI (%) [1] | Antitumor activity / tumor growth compared to control group (words) | Antitumor activity / tumor growth compared to control group (words) (listed as bendamustine) | Parametric TCR based on sAUC (vs. vehicle group 1, study end day 33, i.p., antibodies 1 mg/kg once weekly (days 19, 26), bendamustine 3 mg/kg days 19-22)
1 | B-HH6-B-KV1 GE: Afucosylated glyco-engineered humanized B-Ly1 type II anti-CD20 IgG1 antibody; VH SEQ ID NO:7 (B-HH6), VL SEQ ID No. 20 (B-KV1) | 47% | – | – | –
2 | Cn1c(CCCC(=O)O)nc2cc(N(CCCl)CCCl)ccc21 [Bendamustine, 4-[5-[Bis(2-chloroethyl)amino]-1-methylbenzimidazol-2-yl]buta-noic acid] | 0% | comparable tumor growth as the control group | did not show any antitumor activity | 0.9
